Active and inactive are the calls of the source. The calls are words filed in the database; no cut-off is given here.

Test [1] deals with Acinetobacter baumannii. The test can be described thus: Antibacterial activity against Acinetobacter baumannii A9844 infected in Galleria mellonella caterpillar assessed as prolonged survival rate at 6 mg/kg administered as single dose. The class given is functional, organism-based. Also on record: dose 6 mg/kg.
In test [2] the test system is Acinetobacter baumannii. The test is described as follows: Antibacterial activity against carbapenem-resistant Acinetobacter baumannii A3587 infected in Galleria mellonella caterpillar assessed as prolonged survival rate at 60 mg/kg administered as single dose. The class given is functional.
For test [3], the system named is Acinetobacter baumannii. The test can be described thus: Antibacterial activity against Acinetobacter baumannii A9844 infected in Galleria mellonella caterpillar assessed as prolonged survival rate at 60 mg/kg administered as single dose. Also on record: dose 60 mg/kg. The class given is functional, organism-based.
For test [4], the system named is Acinetobacter baumannii. The test can be described thus: Antibacterial activity against Acinetobacter baumannii A9844 infected in Galleria mellonella caterpillar assessed as prolonged survival rate at 50 mg/kg administered as single dose. The class given is functional, organism-based. More on the design: dose 50 mg/kg.
Test [5] has as its system Acinetobacter baumannii. The test can be described thus: Antibacterial activity against Acinetobacter baumannii A9844 infected in Galleria mellonella caterpillar assessed as prolonged survival rate at 150 mg/kg administered as single dose. The class given is functional, organism-based. More on the design: dose 150 mg/kg.

Take GENTAMICIN: the outcome in the test with Acinetobacter baumannii [1] was Active.

For `C[C@@H](O)[C@H]1C(=O)N2C(C(=O)O)=C(S[C@@H]3CN[C@H](C(=O)N(C)C)C3)[C@H](C)[C@H]12` [MEROPENEM], the Activity result in the test with Acinetobacter baumannii [2] is recorded as “<=12%”. In the test on Acinetobacter baumannii [3], the result was Active.

As to `CN(C)[C@@H]1C(O)=C(C(N)=O)C(=O)[C@@]2(O)C(O)=C3C(=O)c4c(O)cccc4[C@@](C)(O)[C@H]3C[C@@H]12`, the outcome in the test with Acinetobacter baumannii [4] was inactive.

Turning to `CO/N=C(\C(=O)N[C@@H]1C(=O)N2C(C(=O)O)=C(COC(C)=O)CS[C@H]12)c1csc(N)n1`, the result in the test with Acinetobacter baumannii [5] was inactive.

The values above are taken from ChEMBL document CHEMBL1649464, “Galleria mellonella as a model system to study Acinetobacter baumannii pathogenesis and therapeutics” (2009).
